How the values were obtained:
Experiment in all cases: cells
COR-L88 = assay type: functional, cell-based; settings: Homo sapiens;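 further: growth inhibition of COR-L88 cells, read out with a cell viability assay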
Description: SANGER: Inhibition of human COR-L88 cell growth in a cell viability assay.

CP66-MEL = assay type: functional, cell-based, Homo sapiens; settings: Homo sapiens, CP66-MEL;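 further: growth inhibition of CP66-MEL cells determined in a cell viability assay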
Description: SANGER: Inhibition of human CP66-MEL cell growth in a cell viability assay.

Calu-3 = assay type: functional, cell-based, Homo sapiens; settings: Homo sapiens, Calu-3;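 further: growth inhibition of human Calu-3 cells, determined with a cell viability assay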
Description: SANGER: Inhibition of human Calu-3 cell growth in a cell viability assay.

DK-MG = assay type: functional, cell-based, Homo sapiens; settings: Homo sapiens, DK-MG;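 further: growth inhibition of DK-MG cells, read out with a cell viability assay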
Description: SANGER: Inhibition of human DK-MG cell growth in a cell viability assay.

Daoy = assay type: functional, cell-based, Homo sapiens; settings: Homo sapiens, Daoy;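 further: daoy cell growth inhibition, read out as cell viability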
Description: SANGER: Inhibition of human Daoy cell growth in a cell viability assay.

EGI-1 = assay type: functional, cell-based, Homo sapiens; settings: Homo sapiens, EGI-1;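 further: cell viability readout used to gauge growth inhibition of EGI-1 cells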
Description: SANGER: Inhibition of human EGI-1 cell growth in a cell viability assay.

ES1 = assay type: functional, cell-based, Homo sapiens; settings: Homo sapiens, ES1
Description: SANGER: Inhibition of human ES1 cell growth in a cell viability assay.

ES3 = assay type: functional, cell-based, Homo sapiens; settings: Homo sapiens, ES3;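 further: growth inhibition of ES3 cells, read out with a cell viability assay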
Description: SANGER: Inhibition of human ES3 cell growth in a cell viability assay.

ES8 = assay type: functional, cell-based, Homo sapiens; settings: Homo sapiens, ES8;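 further: growth inhibition of human ES8 cells, read out with a cell viability assay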
Description: SANGER: Inhibition of human ES8 cell growth in a cell viability assay.

ESS-1 = assay type: functional, cell-based, Homo sapiens; settings: Homo sapiens, ESS-1;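 further: growth inhibition of human ESS-1 cells, read out by a cell viability assay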
Description: SANGER: Inhibition of human ESS-1 cell growth in a cell viability assay.

EW-18 = assay type: functional, cell-based; settings: Homo sapiens;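 further: growth inhibition of EW-18 cells, read out by a cell viability assay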
Description: SANGER: Inhibition of human EW-18 cell growth in a cell viability assay.

HCE-T = assay type: functional, cell-based, Homo sapiens; settings: Homo sapiens, HCE-T;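 further: cell viability assay read-out, reporting inhibition of HCE-T cell growth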
Description: SANGER: Inhibition of human HCE-T cell growth in a cell viability assay.

HOP-62 = assay type: functional, cell-based, Homo sapiens; settings: Homo sapiens, HOP-62;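 further: cell growth inhibition determined with a viability assay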
Description: SANGER: Inhibition of human HOP-62 cell growth in a cell viability assay.

HT1197 = assay type: functional, cell-based, Homo sapiens, HT-1197; settings: Homo sapiens, HT1197
Description: SANGER: Inhibition of human HT-1197 cell growth in a cell viability assay.

IST-MES1 = assay type: functional, cell-based, Homo sapiens; settings: Homo sapiens, IST-MES1;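 further: growth inhibition of IST-MES1 cells, measured with a cell viability assay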
Description: SANGER: Inhibition of human IST-MES1 cell growth in a cell viability assay.

JAR = assay type: functional, cell-based, Homo sapiens; settings: Homo sapiens, JAR;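 further: growth inhibition of human JAR cells determined with a cell viability assay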
Description: SANGER: Inhibition of human JAR cell growth in a cell viability assay.

KE-37 = assay type: functional, cell-based; settings: Homo sapiens;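 further: growth inhibition of KE-37 cells, read out with a cell viability assay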
Description: SANGER: Inhibition of human KE-37 cell growth in a cell viability assay.

KM-H2 = assay type: functional, cell-based; settings: Homo sapiens;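 further: growth inhibition of KM-H2 cells, read out by a cell viability assay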
Description: SANGER: Inhibition of human KM-H2 cell growth in a cell viability assay.

KP-4 = assay type: functional, cell-based, Homo sapiens; settings: Homo sapiens, KP-4; read-out: IC50;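 further: human KP-4 cells, with growth inhibition read out through a cell viability assay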
Description: SANGER: Inhibition of human KP-4 cell growth in a cell viability assay.

KYSE-140 = assay type: functional, cell-based, Homo sapiens; settings: Homo sapiens, KYSE-140;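 further: cell viability assay measuring growth inhibition in human KYSE-140 cells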
Description: SANGER: Inhibition of human KYSE-140 cell growth in a cell viability assay.

LS-513 = assay type: functional, cell-based, Homo sapiens; settings: Homo sapiens, LS-513
Description: SANGER: Inhibition of human LS-513 cell growth in a cell viability assay.

MDA-MB-453 = assay type: functional, cell-based, Homo sapiens; settings: Homo sapiens, MDA-MB-453
Description: SANGER: Inhibition of human MDA-MB-453 cell growth in a cell viability assay.

MFE-280 = assay type: functional, cell-based, Homo sapiens; settings: Homo sapiens, MFE-280;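 further: growth inhibition of MFE-280 cells, determined with a cell viability readout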
Description: SANGER: Inhibition of human MFE-280 cell growth in a cell viability assay.

MSTO-211H = assay type: functional, cell-based, Homo sapiens; settings: Homo sapiens, MSTO-211H
Description: SANGER: Inhibition of human MSTO-211H cell growth in a cell viability assay.

NB17 = assay type: functional, cell-based; settings: Homo sapiens;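 further: growth inhibition of NB17 cells, read out with a cell viability assay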
Description: SANGER: Inhibition of human NB17 cell growth in a cell viability assay.

NCI-H209 = assay type: functional, cell-based; settings: Homo sapiens;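 further: growth inhibition of human NCI-H209 cells, measured by a cell viability assay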
Description: SANGER: Inhibition of human NCI-H209 cell growth in a cell viability assay.

NCI-H441 = assay type: functional, cell-based; settings: Homo sapiens;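 further: growth inhibition of NCI-H441 cells, read out with a cell viability assay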
Description: SANGER: Inhibition of human NCI-H441 cell growth in a cell viability assay.

NMC-G1 = assay type: functional, cell-based, Homo sapiens; settings: Homo sapiens, NMC-G1;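 further: growth inhibition of the NMC-G1 cell line, measured with a cell viability read-out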
Description: SANGER: Inhibition of human NMC-G1 cell growth in a cell viability assay.

OVCAR-3 = assay type: functional, cell-based, Homo sapiens; settings: Homo sapiens, OVCAR-3;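 further: growth inhibition of human OVCAR-3 cells, determined by a cell viability assay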
Description: SANGER: Inhibition of human OVCAR-3 cell growth in a cell viability assay.

P30-OHK = assay type: functional, cell-based; settings: Homo sapiens;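 further: growth inhibition of the P30-OHK cell line, read out with a cell viability assay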
Description: SANGER: Inhibition of human P30-OHK cell growth in a cell viability assay.

PSN1 = assay type: functional, cell-based, Homo sapiens; settings: Homo sapiens, PSN1;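 further: suppression of growth of human PSN1 cells, read out by a cell viability assay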
Description: SANGER: Inhibition of human PSN1 cell growth in a cell viability assay.

RKO = assay type: functional, cell-based, Homo sapiens; settings: Homo sapiens, RKO;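 further: growth inhibition of human RKO cells, read out with a cell viability assay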
Description: SANGER: Inhibition of human RKO cell growth in a cell viability assay.

RPMI-8226 = assay type: functional, cell-based; settings: Homo sapiens
Description: SANGER: Inhibition of human RPMI-8226 cell growth in a cell viability assay.

SF-268 = assay type: functional, cell-based, Homo sapiens; settings: Homo sapiens, SF-268;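 further: growth inhibition of SF-268 cells determined with a cell viability assay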
Description: SANGER: Inhibition of human SF268 cell growth in a cell viability assay.

SF-295 = assay type: functional, cell-based, Homo sapiens; settings: Homo sapiens, SF-295; read-out: IC50;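 further: growth inhibition of SF-295 cells, read out with a cell viability assay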
Description: SANGER: Inhibition of human SF295 cell growth in a cell viability assay.

SK-MEL-30 = assay type: functional, cell-based; settings: Homo sapiens;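 further: growth inhibition of SK-MEL-30 cells, determined with a cell viability assay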
Description: SANGER: Inhibition of human SK-MEL-30 cell growth in a cell viability assay.

SW1417 = assay type: functional, cell-based, Homo sapiens; settings: Homo sapiens, SW1417;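 further: growth inhibition of human SW1417 cells, read out with a cell viability assay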
Description: SANGER: Inhibition of human SW1417 cell growth in a cell viability assay.

SW1573 = assay type: functional, cell-based, Homo sapiens; settings: Homo sapiens, SW1573;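 further: growth inhibition of SW1573 cells, read out with a cell viability assay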
Description: SANGER: Inhibition of human SW1573 cell growth in a cell viability assay.

SW837 = assay type: functional, cell-based, Homo sapiens; settings: Homo sapiens, SW837;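 further: growth inhibition of SW837 cells, determined with a cell viability assay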
Description: SANGER: Inhibition of human SW837 cell growth in a cell viability assay.

SW 954 = assay type: functional, cell-based, Homo sapiens; settings: Homo sapiens, SW 954;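 further: growth inhibition of SW954 human cancer cells, read out as cell viability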
Description: SANGER: Inhibition of human SW954 cell growth in a cell viability assay.

SW982 = assay type: functional, cell-based; settings: Homo sapiens;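 further: growth inhibition of SW982 cells, read out with a cell viability assay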
Description: SANGER: Inhibition of human SW982 cell growth in a cell viability assay.

ALL-PO = assay type: functional, cell-based; settings: Homo sapiens;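 further: growth inhibition of ALL-PO cells, read out by a cell viability assay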
Description: SANGER: Inhibition of human ALL-PO cell growth in a cell viability assay.

AM-38 = assay type: functional, cell-based, Homo sapiens; settings: Homo sapiens, AM-38;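 further: growth inhibition of AM-38 cells of human origin, read out by a cell viability assay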
Description: SANGER: Inhibition of human AM-38 cell growth in a cell viability assay.

BEN = assay type: functional, cell-based, Homo sapiens; settings: Homo sapiens, BEN;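 further: growth inhibition of the BEN cell line, read out with a cell viability assay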
Description: SANGER: Inhibition of human BEN cell growth in a cell viability assay.

CAL-39 = assay type: functional, cell-based, Homo sapiens; settings: Homo sapiens, CAL-39;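 further: cell viability assay measuring growth inhibition of CAL-39 cells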
Description: SANGER: Inhibition of human CAL-39 cell growth in a cell viability assay.

CAL-51 = assay type: functional, cell-based, Homo sapiens; settings: Homo sapiens, CAL-51;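 further: human CAL-51 cell line, growth inhibition read out via a cell viability assay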
Description: SANGER: Inhibition of human CAL-51 cell growth in a cell viability assay.

TE-8 = assay type: functional, cell-based, Homo sapiens; settings: Homo sapiens, TE-8;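 further: growth inhibition of TE-8 cells, measured with a cell viability readout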
Description: SANGER: Inhibition of human TE-8 cell growth in a cell viability assay.

U-87 MG = assay type: functional, cell-based, U-87MG ATCC; settings: Homo sapiens;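 further: growth inhibition of the cells measured with a viability assay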
Description: SANGER: Inhibition of human U-87-MG cell growth in a cell viability assay.

U-251 = assay type: functional, cell-based, Homo sapiens; settings: Homo sapiens, U-251;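 further: growth inhibition of human U-251 cells, read out through a cell viability assay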
Description: SANGER: Inhibition of human U251 cell growth in a cell viability assay.

UMUC3 = assay type: functional, cell-based, Homo sapiens; settings: Homo sapiens, UMUC3;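 further: growth inhibition of human UM-UC-3 cells, read out with a cell viability assay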
Description: SANGER: Inhibition of human UM-UC-3 cell growth in a cell viability assay.

YKG-1 = assay type: functional, cell-based, Homo sapiens; settings: Homo sapiens, YKG-1;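 further: cell growth inhibition, read out with a viability assay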
Description: SANGER: Inhibition of human YKG-1 cell growth in a cell viability assay.

`CC(=O)O[C@@H]1[C@@H](OC(C)=O)[C@@H](O)[C@H](Oc2c(-c3ccc(O)cc3)oc3cc(O)cc(O)c3c2=O)O[C@H]1C` gave an IC50 (COR-L88) greater than 10000 nM, an IC50 (CP66-MEL) greater than 10000 nM and an IC50 (Calu-3) greater than 10000 nM. The IC50 (DK-MG) was greater than 10000 nM, the IC50 (Daoy) was greater than 10000 nM and the IC50 (EGI-1) was greater than 10000 nM. The IC50 (ES1) was greater than 10000 nM, the IC50 (ES3) was greater than 10000 nM and the IC50 (ES8) was greater than 10000 nM. It also gave an IC50 (ESS-1) greater than 10000 nM, an IC50 (EW-18) greater than 10000 nM and an IC50 (HCE-T) greater than 10000 nM. For the same compound, the IC50 (HOP-62) was greater than 10000 nM, the IC50 (HT1197) was greater than 10000 nM and the IC50 (IST-MES1) was greater than 10000 nM. It also gave an IC50 (JAR) greater than 10000 nM, an IC50 (KE-37) greater than 10000 nM and an IC50 (KM-H2) greater than 10000 nM. The IC50 (KP-4) was greater than 10000 nM, the IC50 (KYSE-140) was greater than 10000 nM and the IC50 (LS-513) was greater than 10000 nM. It also gave an IC50 (MDA-MB-453) greater than 10000 nM, an IC50 (MFE-280) greater than 10000 nM and an IC50 (MSTO-211H) greater than 10000 nM. The IC50 (NB17) was greater than 10000 nM, the IC50 (NCI-H209) was greater than 10000 nM and the IC50 (NCI-H441) was greater than 10000 nM. For the same compound, the IC50 (NMC-G1) was greater than 10000 nM, the IC50 (OVCAR-3) was greater than 10000 nM and the IC50 (P30-OHK) was greater than 10000 nM. The IC50 (PSN1) was greater than 10000 nM, the IC50 (RKO) was greater than 10000 nM and the IC50 (RPMI-8226) was greater than 10000 nM. For the same compound, the IC50 (SF-268) was greater than 10000 nM, the IC50 (SF-295) was greater than 10000 nM and the IC50 (SK-MEL-30) was greater than 10000 nM. The IC50 (SW1417) was greater than 10000 nM, the IC50 (SW1573) was greater than 10000 nM and the IC50 (SW837) was greater than 10000 nM. The IC50 (SW 954) was greater than 10000 nM, the IC50 (SW982) was greater than 10000 nM and the IC50 (ALL-PO) was greater than 10000 nM. The IC50 (AM-38) was greater than 10000 nM, the IC50 (BEN) was greater than 10000 nM and the IC50 (CAL-39) was greater than 10000 nM. For the same compound, the IC50 (CAL-51) was greater than 10000 nM, the IC50 (TE-8) was greater than 10000 nM and the IC50 (U-87 MG) was greater than 10000 nM. For the same compound, the IC50 (U-251) was greater than 10000 nM, the IC50 (UMUC3) was greater than 10000 nM and the IC50 (YKG-1) was greater than 10000 nM.
Work on `C=CCNC1=C2C[C@@H](C)C[C@H](OC)[C@H](O)[C@@H](C)/C=C(\C)[C@H](OC(N)=O)[C@@H](OC)/C=C\C=C(/C)C(=O)NC(=CC1=O)C2=O` [TANESPIMYCIN] yielded an IC50 (COR-L88) of 49.1 nM, an IC50 (CP66-MEL) of 610 nM and an IC50 (Calu-3) greater than 1000 nM. For the same compound, the IC50 (DK-MG) was 372 nM, the IC50 (Daoy) was 317 nM and the IC50 (EGI-1) was greater than 1000 nM. For the same compound, the IC50 (ES1) was greater than 1000 nM, the IC50 (ES3) was 591 nM and the IC50 (ES8) was 308 nM. For the same compound, the IC50 (ESS-1) was 248 nM, the IC50 (EW-18) was 389 nM and the IC50 (HCE-T) was 386 nM. For the same compound, the IC50 (HOP-62) was 499 nM, the IC50 (HT1197) was greater than 1000 nM and the IC50 (IST-MES1) was greater than 1000 nM. It also gave an IC50 (JAR) greater than 1000 nM, an IC50 (KE-37) greater than 1000 nM and an IC50 (KM-H2) greater than 1000 nM. For the same compound, the IC50 (KP-4) was 47.5 nM, the IC50 (KYSE-140) was greater than 1000 nM and the IC50 (LS-513) was 240 nM. The IC50 (MDA-MB-453) was 672 nM, the IC50 (MFE-280) was 213 nM and the IC50 (MSTO-211H) was 558 nM. It also gave an IC50 (NB17) of 880 nM, an IC50 (NCI-H209) greater than 1000 nM and an IC50 (NCI-H441) greater than 1000 nM. The IC50 (NMC-G1) was 293 nM, the IC50 (OVCAR-3) was 593 nM and the IC50 (P30-OHK) was greater than 1000 nM. For the same compound, the IC50 (PSN1) was 46 nM, the IC50 (RKO) was 118 nM and the IC50 (RPMI-8226) was 663 nM. It also gave an IC50 (SF-268) of 643 nM, an IC50 (SF-295) of 64.5 nM and an IC50 (SK-MEL-30) of 912 nM. For the same compound, the IC50 (SW1417) was greater than 1000 nM, the IC50 (SW1573) was 148 nM and the IC50 (SW837) was greater than 1000 nM. It also gave an IC50 (SW 954) of 292 nM, an IC50 (SW982) of 30 nM and an IC50 (ALL-PO) greater than 1000 nM. The IC50 (AM-38) was 208 nM, the IC50 (BEN) was greater than 1000 nM and the IC50 (CAL-39) was 77.7 nM. For the same compound, the IC50 (CAL-51) was 14 nM, the IC50 (TE-8) was 113 nM and the IC50 (U-87 MG) was 103 nM. The IC50 (U-251) was 105 nM, the IC50 (UMUC3) was 455 nM and the IC50 (YKG-1) was 50.7 nM.

Reference: ChEMBL document CHEMBL1201861, “Genomics of Drug Sensitity in Cancer screening data, Wellcome Trust Sanger Institute”
